17 compounds from PMC9430567, “A Small-Molecule Inhibitor of the Anthranilyl-CoA Synthetase PqsA for the Treatment of Multidrug-Resistant Pseudomonas aeruginosa” (Microbiology Spectrum, 2022) can be followed below.

Each structure is given as a SMILES string. Values after ≈ are worked out from the molar mass of the structure shown.

One experiment has as its system T1, MDR P. aeruginosa C218.
T1 construct: C218
Nature of the experiment: microbe, parasite or virus in culture. Set-up: species or system Pseudomonas aeruginosa C218; CLSI broth micro-dilution MIC, complete inhibition of visible growth. The conditions noted are these: Pseudomonas aeruginosa. Here is the method:
MIC determination using the standard micro-dilution method was performed according to the Clinical and Laboratory Standards Institute ([29]). […] Experiments were performed in triplicate.

In another experiment the target is T2, LasR (Pseudomonas aeruginosa, UniProt P25084).
T2 construct: His6-tagged LasR (pET30a-His6-LasR), expressed in E. coli BL21 Star (DE3)
Description: biolayer interferometry (Octet K2). It is filed as binding.

The next experiment concerns the target T3, PqsA G279A (Pseudomonas aeruginosa, UniProt Q9I4X3, G279A).
T3 construct: His6-tagged PqsA G279A (pET30a-His6-pqsA^G279A), expressed in E. coli BL21 Star (DE3)
T3 sequence (Q9I4X3 1-517 G279A): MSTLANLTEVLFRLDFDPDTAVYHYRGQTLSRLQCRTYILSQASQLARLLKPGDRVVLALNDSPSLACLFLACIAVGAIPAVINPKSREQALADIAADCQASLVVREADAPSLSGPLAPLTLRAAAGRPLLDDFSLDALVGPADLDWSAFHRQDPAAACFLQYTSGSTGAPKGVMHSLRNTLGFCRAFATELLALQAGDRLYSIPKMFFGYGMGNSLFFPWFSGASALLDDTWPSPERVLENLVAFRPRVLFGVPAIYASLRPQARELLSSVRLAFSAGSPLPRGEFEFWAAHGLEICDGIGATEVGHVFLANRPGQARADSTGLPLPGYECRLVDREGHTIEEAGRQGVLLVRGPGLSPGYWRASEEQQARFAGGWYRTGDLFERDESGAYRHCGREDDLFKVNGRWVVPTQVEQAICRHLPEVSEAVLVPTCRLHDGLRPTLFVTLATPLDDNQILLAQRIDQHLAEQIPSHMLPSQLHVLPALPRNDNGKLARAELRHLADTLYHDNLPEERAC
Nature of the experiment: biolayer interferometry (Octet K2). It is filed as binding.

The target of another experiment is T4, PqsA D299A (Pseudomonas aeruginosa, UniProt Q9I4X3, D299A).
T4 construct: His6-tagged PqsA D299A (pET30a-His6-pqsA^D299A), expressed in E. coli BL21 Star (DE3)
T4 sequence (Q9I4X3 1-517 D299A): T3 sequence (Q9I4X3 1-517 G279A)
Nature of the experiment: biolayer interferometry (Octet K2). It is filed as binding.

Experiment [1] addresses T5, anthranilyl-CoA synthetase PqsA (Pseudomonas aeruginosa, UniProt Q9I4X3).
T5 construct: His6-tagged PqsA (pET30a-His6-pqsA), expressed in E. coli BL21 Star (DE3)
Nature of the experiment: biolayer interferometry (Octet K2). It is filed as binding.

In a further experiment the target is T6, PqsD (Pseudomonas aeruginosa, UniProt P20582).
T6 construct: His6-tagged PqsD (pET30a-His6-pqsD)
Nature of the experiment: biochemical. Details: biolayer interferometry (BLI) binding to purified His6-tagged protein. Here is the method:
(§1) [compound left out]. Cell debris was removed by centrifugation. […] The purified protein was assessed by SDS-PAGE.

Another experiment deals with T7, PqsR (Pseudomonas aeruginosa, UniProt Q9I4X0).
T7 construct: gene mvfR; His6-tagged PqsR (pET30a-His6-pqsR)
Description: biochemical. Details: biolayer interferometry (BLI) binding to purified His6-tagged protein. Here is the method:
as §1

For another experiment, the target named is T8, LasI (Pseudomonas aeruginosa, UniProt P33883).
T8 construct: His6-tagged LasI (pET30a-His6-lasI)
Nature of the experiment: biochemical. Details: biolayer interferometry (BLI) binding to purified His6-tagged protein. Here is the method:
as §1

In another experiment the target is T9, RhlI (Pseudomonas aeruginosa, UniProt P54291).
T9 construct: His6-tagged RhlI (pET30a-His6-rhlI)
Description: biochemical. Set-up: biolayer interferometry (BLI) binding to purified His6-tagged protein. Here is the method:
as §1

Another experiment addresses T10, PqsE (Pseudomonas aeruginosa, UniProt P20581).
T10 construct: His6-tagged PqsE (pET30a-His6-pqsE), expressed in E. coli BL21 Star (DE3)
Description: biolayer interferometry (Octet K2). It is filed as binding.

In a further experiment the target is RhlR (Pseudomonas aeruginosa, UniProt P54292). Description: biochemical.

Compound `NCC[C@H](O)C(=O)N[C@@H]1C[C@H](N)[C@@H](O[C@H]2O[C@H](CN)[C@@H](O)[C@H](O)[C@H]2O)[C@H](O)[C@H]1O[C@H]1O[C@H](CO)[C@@H](O)[C@H](N)[C@H]1O` [Amikacin] gave an MIC against MDR P. aeruginosa C218 of 7.8 µg/mL (≈ 13.3 µM).

`CC1(C)S[C@@H]2[C@H](NC(=O)[C@H](NC(=O)N3CCNC3=O)c3ccccc3)C(=O)N2[C@H]1C(=O)O` [Azlocillin]: the MIC against MDR P. aeruginosa C218 came out at 4000 µg/mL (≈ 8670 µM).

The compound `C[C@H]1[C@H](NC(=O)/C(=N\OC(C)(C)C(=O)O)c2csc(N)n2)C(=O)N1S(=O)(=O)O` [Aztreonam] registered an MIC against MDR P. aeruginosa C218 of 4000 µg/mL (≈ 9190 µM).

On to `CO/N=C(\C(=O)N[C@@H]1C(=O)N2C(C(=O)[O-])=C(C[N+]3(C)CCCC3)CS[C@H]12)c1csc(N)n1` [Cefepime], for which the MIC in the experiment on MDR P. aeruginosa C218 came to 4000 µg/mL (≈ 8320 µM).

The compound `CC(C)(O/N=C(\C(=O)N[C@@H]1C(=O)N2C(C(=O)[O-])=C(C[n+]3ccccc3)CS[C@H]12)c1csc(N)n1)C(=O)O` [Ceftazidime] gave an MIC in the experiment with MDR P. aeruginosa C218 of 500 µg/mL (≈ 915 µM).

The compound `C[C@@H](O)[C@H]1C(=O)N2C(C(=O)O)=C(S[C@@H]3CN[C@H](CNS(N)(=O)=O)C3)[C@H](C)[C@H]12` [Doripenem] yielded an MIC against MDR P. aeruginosa C218 of 500 µg/mL (≈ 1190 µM).

The compound `COc1c(N2CCNC(C)C2)c(F)cc2c(=O)c(C(=O)O)cn(C3CC3)c12` (centres unmarked) [Gatifloxacin] yielded an MIC with MDR P. aeruginosa C218 of 62.5 µg/mL (≈ 166 µM).

For the compound `C[C@@H](O)[C@H]1C(=O)N2C(C(=O)O)=C(SCCNC=N)C[C@H]12` [Imipenem], in the experiment with MDR P. aeruginosa C218, the MIC is 500 µg/mL (≈ 1670 µM).

`NC[C@H]1O[C@H](O[C@H]2[C@H](O)[C@@H](O[C@H]3O[C@H](CO)[C@@H](O)[C@H](N)[C@H]3O)[C@H](N)C[C@@H]2N)[C@H](O)[C@@H](O)[C@@H]1O` [Kanamycin] came in with an MIC against MDR P. aeruginosa C218 of 310 µg/mL (≈ 640 µM).

Turning to `C[C@H]1COc2c(N3CCN(C)CC3)c(F)cc3c(=O)c(C(=O)O)cn1c23` [Levofloxacin], in the experiment with MDR P. aeruginosa C218, the MIC is 62.5 µg/mL (≈ 173 µM).

Compound `CCn1cc(C(=O)O)c(=O)c2cc(F)c(N3CCNC(C)C3)c(F)c21` (centres unmarked) [Lomefloxacin] displayed an MIC in the experiment on MDR P. aeruginosa C218 of 125 µg/mL (≈ 356 µM).

Take `C[C@@H](O)[C@H]1C(=O)N2C(C(=O)O)=C(S[C@@H]3CN[C@H](C(=O)N(C)C)C3)[C@H](C)[C@H]12` [Meropenem]: the MIC against MDR P. aeruginosa C218 was 500 µg/mL (≈ 1300 µM).

Turning to `CCn1cc(C(=O)O)c(=O)c2cc(F)c(N3CCNCC3)cc21` [Norfloxacin], the MIC with MDR P. aeruginosa C218 came to 4000 µg/mL (≈ 12500 µM).

`CC1COc2c(N3CCN(C)CC3)c(F)cc3c(=O)c(C(=O)O)cn1c23` (centres unmarked) [Ofloxacin] gave an MIC against MDR P. aeruginosa C218 of 500 µg/mL (≈ 1380 µM).

In turn, `CCN1CCN(C(=O)N[C@@H](C(=O)N[C@@H]2C(=O)N3[C@@H]2SC(C)(C)[C@@H]3C(=O)O)c2ccccc2)C(=O)C1=O` [Piperacillin] registered an MIC against MDR P. aeruginosa C218 of 4000 µg/mL (≈ 7730 µM).

The compound `NC[C@H]1O[C@H](O[C@H]2[C@H](O)[C@@H](O[C@H]3O[C@H](CO)[C@@H](O)[C@H](N)[C@H]3O)[C@H](N)C[C@@H]2N)[C@H](N)C[C@@H]1O` [Tobramycin] returned an MIC against MDR P. aeruginosa C218 of 3.9 µg/mL (≈ 8.34 µM).

In the case of `c1ccc2c(c1)[nH]c1cnccc12` [norharmane], the Kd was 2.29 mM at LasR; 1.1 mM at PqsA G279A; 1.65 mM on PqsA D299A; 0.00254 mM in experiment [1]; above 1 mM at PqsD; above 1 mM at PqsR. The Kd on LasI was above 1 mM; on RhlI, above 1 mM; on PqsE, 0.5 mM; at RhlR, above 1 mM.
